US20250332266A1, “COMPOUNDS FOR THE DEGRADATION OF EGFR KINASE” (BeiGene Switzerland GmbH, priority 2022, published 2025)

How the values were obtained:
Type in all cases: cell-based
[1] = biological target: T1, EGFR L858R (BaF3-L858R) (Homo sapiens, UniProt P00533, L858R); assay: EGFR degradation, HTRF total-EGFR assay, BaF3-L858R cells; conditions: 16 h treatment
T1 construct: host or cells: BaF3
Description: BaF3-L858R (abbv. L858R) cell were purchased from Kangyuan Bochuang Biotechnology (Beijing) Co., Ltd.
H1975-#8 and BaF3-L858R cells are treated with compounds diluted in 0.1% DMSO cell culture medium on day 2, incubate for 16 h, 37° C., 5% CO2. the final concentration of compounds in all assay starts with 10 uM, 5-fold dilution, total 8 doses were included.
Total-EGFR cellular kit (64NG1PEH) were used for evaluating EGFR degradation.
After 16 h treatment, for H1975-#8 cells, add 100 μL HTRF 1× lysis buffer to each well; for BaF3-L858R cells, add 20 μL 4× lysis buffer to each well; seal the plate and incubate 1 hour at room temperature on a plate shaker; Once the cells are lysed, 16 μL of cell lysate are transferred to a PE 384-well HTRF detection plate; 4 μL of pre-mixed HTRF antibodies are added to each well; cover the plate with a plate sealer, spin 1000 rpm for 1 min, incubate overnight at room temperature; read on BMG PheraStar with HTRF protocol (337 nm-665 nm-620 nm).
The inhibition (degradation) percentage of the compound was calculated by the following equation:
Inhibition percentage of Compound=100−100×(Signal−low control)/(High control−low control), wherein signal=each test compound group
High control=Cell group with added DMSO and without compound, indicating microplate readings without EGFR degradation.
Imax (Dmax) is the maximum percentage of inhibition (degradation).
The IC50 (DC50) value of a compound can be obtained by fitting the following equation
Wherein, X and Y are known values, and IC50, Hillslope, Top and Bottom are the parameters obtained by fitting with software. Y is the inhibition percentage (calculated from the equation), X is the concentration of the compound; IC50 is the concentration of the compound when the 50% inhibition is reached. The smaller the IC50 value is, the stronger the inhibitory ability of the compound is. Vice versa, the higher the IC50 value is, the weaker the ability the inhibitory ability of the compound is; Hillslope represents the slope of the fitted curve, generally around 1*; Bottom represents the minimum value of the curve obtained by data fitting, which is generally 0%±20%; Top represents the maximum value of the curve obtained by data fitting, which is generally 100%±20%. The experimental data were fitted by calculating and analyzing with Dotmatics data analysis software.

[2] = biological target: T2, EGFR L858R/T790M/C797S (H1975-clone #25) (Homo sapiens, UniProt P00533, C797S/L858R/T790M); assay: EGFR degradation, HTRF total-EGFR assay, H1975-clone #25 (LTC); conditions: H1975-clone #25 L858R/T790M/C797S, 16 h treatment
T2 construct: expressed in transfected cells; host or cells: H1975 (clone #25), lentiviral transduction, endogenous EGFR knocked out
Outline: (§1)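 H1975 clones with endogenous EGFR knocked out and homozygous exogenous EGFR mutants (#28 Del19/T790M/C797S; #25 L858R/T790M/C797S) treated 16 h at 37 °C, 8 doses, 5-fold from 10 μM, 0.2% DMSO. Total EGFR measured by HTRF on lysates, normalised to DMSO controls; DC50 and Dmax from curve fit.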

[3] = biological target: EGFR Del19/T790M/C797S (H1975-clone #28) (Homo sapiens, UniProt P00533, T790M/C797S, form not given); assay: EGFR degradation, HTRF total-EGFR assay, H1975-clone #28 (DTC); conditions: H1975-clone #28 Del19/T790M/C797S, 16 h treatment
Outline: as §1

Compound	DC50 [1]	Dmax [1]	Degradation H1975 # 25-LTC [2]	Degradation H1975 # 28 DTC [3]
Cc1cc2cc(n1)-c1cnn(C)c1OC[C@H]1C[C@@H](CN3/C(=N/C2=O)Nc2ccc(N4CCN([C@@H]5CCN(c6ccc(C7CCC(=O)NC7=O)nc6C)C[C@H]5F)CC4)cc23)C1 (stereo partly drawn) [Example 57, 3-(5-((3R,4R)-4-(4-((7^1s,7^3S,E)-1^1,2^6-dimethyl-3-oxo-5^2,5^3-dihydro-1^1H,5^1H-9-oxa-4-aza-5(2,1)-benzo[d]imidazola-2(2,4)-pyridina-1(4,5)-pyrazola-7(1,3)-cyclobutanacyclononaphane-5^6-yl)piperazin-1-yl)-3-fluoropiperidin-1-yl)-6-methylpyridin-2-yl)piperidine-2,6-dione]			89.9	87.5
Cc1cc2cc(n1)-c1cnn(C)c1OC[C@H]1C[C@@H](CN3/C(=N/C2=O)Nc2ccc(N4CCN(CC5CN(c6cnc(C7CCC(=O)NC7=O)cc6C)C5)C[C@@H]4C)cc23)C1 (stereo partly drawn) [Example 37, 3-(5-(3-(((S)-4-((7^1s,7^3R,E)-1^1,2^6-dimethyl-3-oxo-5^2,5^3-dihydro-1^1H,5^1H-9-oxa-4-aza-5(2,1)-benzo[d]imidazola-2(2,4)-pyridina-1(4,5)-pyrazola-7(1,3)-cyclobutanacyclononaphane-5^6-yl)-3-methylpiperazin-1-yl)methyl)azetidin-1-yl)-4-methylpyridin-2-yl)piperidine-2,6-dione]			80.7	79.4
Cc1cc2cc(n1)-c1cnn(C)c1OC[C@H]1C[C@@H](CN3/C(=N/C2=O)Nc2ccc(N4CCC(N5CCN(c6cnc(C7CCC(=O)NC7=O)cc6C)C[C@@H]5C)CC4)cc23)C1 (stereo partly drawn) [Example 110, 3-(5-((S)-4-(1-((7^1s,7^3R,E)-1^1,2^6-dimethyl-3-oxo-5^2,5^3-dihydro-1^1H,5^1H-9-oxa-4-aza-5(2,1)-benzo[d]imidazola-2(2,4)-pyridina-1(4,5)-pyrazola-7(1,3)-cyclobutanacyclononaphane-5^6-yl)piperidin-4-yl)-3-methylpiperazin-1-yl)-4-methylpyridin-2-yl)piperidine-2,6-dione]			90.3	82.2
Cc1cc2cc(n1)-c1cnn(C)c1OC[C@H]1C[C@@H](CN3/C(=N/C2=O)Nc2ccc(N4CCC(N5CCN(c6cc(F)c([C@H]7CCC(=O)NC7=O)c(F)c6)CC5)CC4)cc23)C1 [Example 17, (R)-3-(4-(4-(1-((7^1s,7^3s,E)-1^1,2^6-dimethyl-3-oxo-5^2,5^3-dihydro-1^1H,5^1H-9-oxa-4-aza-5(2,1)-benzo[d]imidazola-2(2,4)-pyridina-1(4,5)-pyrazola-7(1,3)-cyclobutanacyclononaphane-5^6-yl)piperidin-4-yl)piperazin-1-yl)-2,6-difluorophenyl)piperidine-2,6-dione]			88.3	86.2
(R)-3-(4-(4-(4-((7^1s,7^3s,E)-1^1,2^6-dimethyl-3-oxo-5^2,5^3-dihydro-1^1H,5^1H-9-oxa-4-aza-5(2,1)-benzo[d]imidazola-2(2,4)-pyridina-1(4,5)-pyrazola-7(1,3)-cyclobutanacyclononaphane-5^6-yl)piperazin-1-yl)piperidin-1-yl)-2,6-difluorophenyl)piperidine-2,6-dione [Example 6]			91.7	91.2
Cc1cc2cc(n1)-c1cnn(C)c1OC[C@H]1C[C@@H](CN3/C(=N/C2=O)Nc2ccc(N4CCN(CCc5ccc(C6CCC(=O)NC6=O)nc5C)CC4)cc23)C1 (stereo partly drawn) [Example 82, 3-(5-(2-(4-((7^1s,7^3s,E)-1^1,2^6-dimethyl-3-oxo-5^2,5^3-dihydro-1^1H,5^1H-9-oxa-4-aza-5(2,1)-benzo[d]imidazola-2(2,4)-pyridina-1(4,5)-pyrazola-7(1,3)-cyclobutanacyclononaphane-5^6-yl)piperazin-1-yl)ethyl)-6-methylpyridin-2-yl)piperidine-2,6-dione]			90.3	79.5
Cc1cc2cc(n1)-c1cnn(C)c1OC[C@H]1C[C@@H](CN3/C(=N/C2=O)Nc2ccc(N4CCN(CCNc5cc(F)c([C@H]6CCC(=O)NC6=O)c(F)c5)CC4)cc23)C1 (single isomer, unassigned) [Example 14]			83.9	77.1
Cc1cc2cc(n1)-c1cnn(C)c1OC[C@H]1C[C@@H](CN3/C(=N/C2=O)Nc2ccc(N(C)C4CN(C5CCN(c6cnc(C7CCC(=O)NC7=O)cc6C)CC5)C4)cc23)C1 (stereo partly drawn) [Example 41, 3-(5-(4-(3-(((7^1s,7^3s,E)-1^1,2^6-dimethyl-3-oxo-5^2,5^3-dihydro-1^1H,5^1H-9-oxa-4-aza-5(2,1)-benzo[d]imidazola-2(2,4)-pyridina-1(4,5)-pyrazola-7(1,3)-cyclobutanacyclononaphane-5^6-yl)(methyl)amino)azetidin-1-yl)piperidin-1-yl)-4-methylpyridin-2-yl)piperidine-2,6-dione]			84.2	80.1

Continued, values first:

DC50 [1]	Dmax [1]	Degradation H1975 # 25-LTC [2]	Degradation H1975 # 28 DTC [3]	Compound
52.3 nM	76.2%			Cc1cc2cc(n1)-c1cnn(C)c1OC[C@H]1C[C@@H](CN3/C(=N/C2=O)Nc2ccc(N4CCN(C5CCN(c6cc(F)c(C7CCC(=O)NC7=O)nc6C)CC5)CC4)cc23)C1 (stereo partly drawn) [Example 142, 3-(5-(4-(4-((7^1s,7^3s,E)-1^1,2^6-dimethyl-3-oxo-5^2,5^3-dihydro-1^1H,5^1H-9-oxa-4-aza-5(2,1)-benzo[d]imidazola-2(2,4)-pyridina-1(4,5)-pyrazola-7(1,3)-cyclobutanacyclononaphane-5^6-yl)piperazin-1-yl)piperidin-1-yl)-3-fluoro-6-methylpyridin-2-yl)piperidine-2,6-dione]
		87.5	82.6	Cc1cc2cc(n1)-c1cnn(C)c1OC[C@H]1C[C@@H](CN3/C(=N/C2=O)Nc2ccc(N4CCN(C5CCN(c6ccc(C7CCC(=O)NC7=O)nc6C)CC5)CC45COC5)cc23)C1 (stereo partly drawn) [Example 124, 3-(5-(4-(5-((7^1s,7^3S,E)-1^1,2^6-dimethyl-3-oxo-5^2,5^3-dihydro-1^1H,5^1H-9-oxa-4-aza-5(2,1)-benzo[d]imidazola-2(2,4)-pyridina-1(4,5)-pyrazola-7(1,3)-cyclobutanacyclononaphane-5^6-yl)-2-oxa-5,8-diazaspiro[3.5]nonan-8-yl)piperidin-1-yl)-6-methylpyridin-2-yl)piperidine-2,6-dione]
		85.9	80.5	Cc1cc2cc(n1)-c1cnn(C)c1OC[C@H]1C[C@@H](CN3/C(=N/C2=O)Nc2ccc(N4CC5CCC4CN5C4CCN(c5ccc(C6CCC(=O)NC6=O)nc5C)CC4)cc23)C1 (stereo partly drawn) [Example 126, 3-(5-(4-(5-((7^1s,7^3s,E)-1^1,2^6-dimethyl-3-oxo-5^2,5^3-dihydro-1^1H,5^1H-9-oxa-4-aza-5(2,1)-benzo[d]imidazola-2(2,4)-pyridina-1(4,5)-pyrazola-7(1,3)-cyclobutanacyclononaphane-5^6-yl)-2,5-diazabicyclo[2.2.2]octan-2-yl)piperidin-1-yl)-6-methylpyridin-2-yl)piperidine-2,6-dione]
		92.0	89.6	Cc1cc2cc(n1)-c1cnn(C)c1OC[C@H]1C[C@@H](CN3/C(=N/C2=O)Nc2ccc(N4CCN([C@H]5CCN(c6cnc(C7CCC(=O)NC7=O)cc6C)C[C@H]5F)CC4)cc23)C1 (stereo partly drawn) [Example 134, 3-(5-((3R,4S)-4-(4-((7^1s,7^3R,E)-1^1,2^6-dimethyl-3-oxo-5^2,5^3-dihydro-1^1H,5′H-9-oxa-4-aza-5(2,1)-benzo[d]imidazola-2(2,4)-pyridina-1(4,5)-pyrazola-7(1,3)-cyclobutanacyclononaphane-5^6-yl)piperazin-1-yl)-3-fluoropiperidin-1-yl)-4-methylpyridin-2-yl)piperidine-2,6-dione]
